Results taken from patent publication US20240116985A1, “STAPLED PEPTIDES AND METHODS THEREOF” (priority 2020, published 2024).
Read-outs that look alike come from different tables or passages of the source.

Assays:
[1] = target: T1, full-length beta-Catenin (Uniprot ID P35222) (Homo sapiens, UniProt P35222); experiment: Fluorescence polarization IC50 (beta-catenin / 5FAM-TCF4 10-53 competition); assay type: binding
T1 construct: 10 nM full-length beta-Catenin (Uniprot ID P35222)
T1 sequence (P35222 1-781): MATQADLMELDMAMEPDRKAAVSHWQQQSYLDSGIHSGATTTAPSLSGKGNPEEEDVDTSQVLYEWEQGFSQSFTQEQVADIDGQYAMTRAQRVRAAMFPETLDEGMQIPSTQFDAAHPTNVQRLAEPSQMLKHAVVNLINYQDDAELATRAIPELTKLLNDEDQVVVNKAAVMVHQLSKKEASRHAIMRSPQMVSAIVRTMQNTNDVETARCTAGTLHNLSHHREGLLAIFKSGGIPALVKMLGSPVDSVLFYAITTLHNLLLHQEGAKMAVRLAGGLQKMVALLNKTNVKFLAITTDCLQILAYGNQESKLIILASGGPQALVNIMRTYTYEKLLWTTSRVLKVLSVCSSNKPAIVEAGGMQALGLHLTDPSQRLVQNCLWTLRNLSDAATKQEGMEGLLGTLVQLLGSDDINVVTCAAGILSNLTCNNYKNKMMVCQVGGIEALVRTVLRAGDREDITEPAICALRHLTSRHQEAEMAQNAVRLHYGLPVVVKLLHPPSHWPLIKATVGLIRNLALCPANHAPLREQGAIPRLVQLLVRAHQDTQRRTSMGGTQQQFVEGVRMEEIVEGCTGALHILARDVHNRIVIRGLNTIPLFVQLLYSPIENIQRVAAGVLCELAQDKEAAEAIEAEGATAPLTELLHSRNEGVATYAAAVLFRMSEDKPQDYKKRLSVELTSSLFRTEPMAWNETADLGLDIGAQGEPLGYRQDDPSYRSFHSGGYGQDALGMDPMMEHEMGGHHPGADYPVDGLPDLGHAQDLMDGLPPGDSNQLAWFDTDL

[2] = target: T2, beta-catenin/TCF4 engagement (Homo sapiens, UniProt P35222); experiment: Nano-BRET target engagement assay (B-cat-Halo & TCF4-Luc in HEK293 cells); assay type: cell-based; conditions: for inhibition at 10 µM: HEK293, @ 10 uM, read-out: NanoBRET % inh @ 10 uM
T2 construct: expressed in transfected cells; host or cells: HEK293
T2 sequence (P35222 1-781): T1 sequence (P35222 1-781)

CHI Log D procedure = assay type: physicochemical
[3] = fluorescence polarization, read-out: beta-Catenin FP IC50
[4] = fluorescence polarization, beta-catenin, read-out: FP EC50

SMILES	CHI Log D (CHI Log D procedure; pH 7.4)	IC50 ([1]; read-out: beta-Catenin FP IC50) [µM]	IC50 [1, 4] [µM]	also measured
CC[C@H](C)[C@@H]1NC(=O)[C@H](CC(=O)O)NC(=O)[C@]2(CC=CCCCC3(CCCC=CCCCCCC[C@@](C)(C(=O)N[C@@H](Cc4ccccc4)C(=O)N[C@@H](Cc4csc5ccccc45)C(=O)N[C@@H](Cc4c[nH]cn4)C(N)=O)NC(=O)[C@H](CC(N)=O)NC(=O)[C@H](Cc4ccccc4)NC(=O)[C@H](C)NC(=O)[C@H](C)NC(=O)[C@H](CC(=O)O)NC(=O)[C@H](CC(=O)O)NC3=O)NC1=O)CCCN2C(C)=O (stereo partly drawn) [I-470, Ac-PL3-Asp-Ile-B5-Asp-Asp-Ala-Ala-Phe-Asn-S8-Phe-BztA-His-NH2]	2.394			IC50 [1, 3]: 0.011 µM; IC50 ([1]; read-out: FP EC50): 0.011 µM; inhibition at 10 µM [2]: 14.1%
CC(=O)N1CCC[C@]12CC=CCCCC1(CCCC=CCCCCCC[C@@](C)(C(=O)N[C@@H](Cc3ccccc3)C(=O)N[C@@H](Cc3csc4ccccc34)C(=O)N[C@@H](CC(N)=O)C(N)=O)NC(=O)[C@H](CC(N)=O)NC(=O)[C@H](Cc3ccccc3)NC(=O)[C@H](C)NC(=O)[C@H](C)NC(=O)[C@H](CCC(=O)O)NC(=O)[C@H](CC(=O)O)NC1=O)NC(=O)[C@H](CC(C)C)NC(=O)[C@H](CC(=O)O)NC2=O (stereo partly drawn) [I-752, Ac-PL3-Asp-Leu-B5-Asp-Glu-Ala-Ala-Phe-Asn-S8-Phe-BztA-Asn-NH2]	2.419			IC50 [1, 3]: 0.016 µM; IC50 ([1]; read-out: FP EC50): 0.016 µM; IC50 ([2]; Abs IC50, read-out: NanoBRET Abs IC50): 9.9 µM; inhibition at 10 µM [2]: 53%; IC50 ([2]; absolute IC50, read-out: NanoBRET Abs IC50): 9.9 µM
CC(=O)N1CCC[C@]12CC=CCCCC1(CCCC=CCCCOC(=O)N3CC[C@@](C(=O)N[C@@H](Cc4ccsc4)C(=O)N[C@@H](Cc4csc5ccccc45)C(=O)N[C@@H](CCC(N)=O)C(N)=O)(C3)NC(=O)[C@H](CC(N)=O)NC(=O)[C@H](Cc3ccccc3)NC(=O)[C@H](C)NC(=O)[C@H](C)NC(=O)[C@H](CN(CC(=O)O)CC(F)(F)F)NC(=O)[C@H](CC(=O)O)NC1=O)NC(=O)[C@H](CC(C)(C)C)NC(=O)[C@H](CC(=O)O)NC2=O (stereo partly drawn) [I-761, Ac-PL3-Asp-Npg-B5-Asp-TfeGA-Ala-Ala-Phe-Asn-PyrS2-3Thi-BztA-Gln-NH2]	2.207	0.005		IC50 ([1]; read-out: bCat FP IC50): < 0.005 µM; inhibition at 10 µM [2]: 63.4%; IC50 ([2]; read-out: NanoBRET IC50): 5 µM; logD (CHI Log D procedure; pH 7.4): 2.2
CC(=O)N1CCC[C@]12CC=CCCCC1(CCCC=CCCCOC(=O)N3CC[C@@](C(=O)N[C@@H](Cc4ccsc4)C(=O)N[C@@H](Cc4csc5ccccc45)C(=O)N[C@@H](CO)C(N)=O)(C3)NC(=O)[C@H](Cc3ccccc3)NC(=O)[C@H](Cc3ccccc3)NC(=O)[C@H](C)NC(=O)[C@H](C)NC(=O)[C@H](CN(CC(=O)O)CC(F)(F)F)NC(=O)[C@H](CC(=O)O)NC1=O)NC(=O)[C@H](CC(C)(C)C)NC(=O)[C@H](CC(=O)O)NC2=O (stereo partly drawn) [I-963, Ac-PL3-Asp-Npg-B5-Asp-TfeGA-Ala-Ala-Phe-Phe-PyrS2-3Thi-BztA-Ser-NH2]	2.117	0.402	0.402	
CCN(CC(=O)O)C[C@@H]1NC(=O)[C@H](CC(=O)O)NC(=O)C2(CCCC=CCCCOC(=O)N3CC[C@@](C(=O)N[C@@H](Cc4ccsc4)C(=O)N[C@@H](Cc4csc5ccccc45)C(=O)N[C@@H](CCC(N)=O)C(N)=O)(C3)NC(=O)[C@H](Cc3ccccc3)NC(=O)[C@H](Cc3ccccc3)NC(=O)[C@H](C)NC(=O)[C@H](C)NC1=O)CCCC=CC[C@]1(CCCN1C(C)=O)C(=O)N[C@@H](CC(=O)O)C(=O)N[C@@H](CC(C)(C)C)C(=O)N2 (stereo partly drawn) [I-970, Ac-PL3-Asp-Npg-B5-Asp-EtGA-Ala-Ala-Phe-Phe-PyrS2-3Thi-BztA-Gln-NH2]	1.853	1.36	1.36	
CC(=O)N1CCC[C@]12CC=CCCCC1(CCCC=CCCCOC(=O)N3CC[C@@](C(=O)N[C@@H](Cc4ccsc4)C(=O)N[C@@H](Cc4csc5ccccc45)C(=O)N[C@@H](CCC(N)=O)C(N)=O)(C3)NC(=O)[C@H](CO)NC(=O)[C@H](Cc3ccccc3)NC(=O)[C@H](C)NC(=O)[C@H](C)NC(=O)[C@H](Cc3cccc(C(=O)O)c3)NC(=O)[C@H](CC(=O)O)NC1=O)NC(=O)[C@H](CC(C)(C)C)NC(=O)[C@H](CC(=O)O)NC2=O (stereo partly drawn) [I-978, Ac-PL3-Asp-Npg-B5-Asp-3COOHF-Ala-Ala-Phe-Ser-PyrS2-3Thi-BztA-Gln-NH2]	1.745	0.112	0.112	
CC(=O)N1CCC[C@]12CC=CCCCC1(CCCC=CCCCOC(=O)N3CC[C@@](C(=O)N[C@@H](Cc4ccsc4)C(=O)N[C@@H](Cc4csc5ccccc45)C(=O)N[C@@H](CCC(N)=O)C(N)=O)(C3)NC(=O)[C@H](CO)NC(=O)[C@H](Cc3ccccc3)NC(=O)[C@H](C)NC(=O)[C@H](C)NC(=O)[C@H](Cc3cccc(C(=O)O)c3)NC(=O)[C@H](CC(=O)O)NC1=O)NC(=O)[C@H](CC(C)(C)C)NC(=O)[C@H](CC(=O)O)NC2=O (stereo partly drawn) [I-979, Ac-PL3-Asp-Npg-B5-Asp-3COOHF-Ala-Ala-Phe-Ser-PyrS2-3Thi-BztA-Gln-NH2]	1.809	0.24	0.24	
CC(=O)N1CCC[C@]12CC=CCCCC1(CCCC=CCCCOC(=O)N3CC[C@@](C(=O)N[C@@H](Cc4ccsc4)C(=O)N[C@@H](Cc4csc5ccccc45)C(=O)N[C@@H](CCC(N)=O)C(N)=O)(C3)NC(=O)[C@H](CC(N)=O)NC(=O)[C@H](Cc3ccccc3)NC(=O)[C@H](C)NC(=O)[C@H](C)NC(=O)[C@H](CC(=O)O)NC(=O)[C@H](CC(=O)O)NC1=O)NC(=O)[C@H](CC(C)(C)C)NC(=O)[C@H](CC(=O)O)N(C)C2=O (stereo partly drawn) [I-1160, Ac-PL3-NMeD-Npg-B5-Asp-Asp-Ala-Ala-Phe-Asn-PyrS2-3Thi-BztA-Gln-NH2]				IC50 [1, 3]: 0.575 µM; chromatographic logD (CHI Log D procedure; pH 7.4, CHI Log D): 1.41

The next lines start with results.

CHI Log D (CHI Log D procedure; pH 7.4)	IC50 ([1]; read-out: beta-Catenin FP IC50) [µM]	IC50 [1, 4] [µM]	SMILES	also measured
2.044	0.52	0.52	CC(=O)N1CCC[C@]12CC=CCCCC1(CCCC=CCCCOC(=O)N3CC[C@@](C(=O)N[C@@H](Cc4ccccc4Cl)C(=O)N[C@@H](Cc4csc5ccccc45)C(=O)N[C@@H](CO)C(N)=O)(C3)NC(=O)[C@H](CC(C)C)NC(=O)[C@H](Cc3ccccc3)NC(=O)[C@H](C)NC(=O)[C@H](C)NC(=O)[C@H](CC(=O)O)NC(=O)[C@H](CC(=O)O)NC1=O)NC(=O)[C@H](CC(C)(C)C)NC(=O)[C@H](CC(=O)O)NC2=O (stereo partly drawn) [I-1065, Ac-PL3-Asp-Npg-B5-Asp-Asp-Ala-Ala-Phe-Leu-PyrS2-2C1F-BztA-Ser-NH2]	
2.147	0.517	0.517	CC(=O)N1CCC[C@]12CC=CCCCC1(CCCC=CCCCOC(=O)N3CC[C@@](C(=O)N[C@@H](Cc4ccccc4Cl)C(=O)N[C@@H](Cc4csc5ccccc45)C(=O)N[C@@H](CO)C(N)=O)(C3)NC(=O)[C@H](CC(C)C)NC(=O)[C@H](Cc3ccccc3)NC(=O)[C@H](C)NC(=O)[C@H](C)NC(=O)[C@H](CCC(=O)O)NC(=O)[C@H](CC(=O)O)NC1=O)NC(=O)[C@H](CC(C)(C)C)NC(=O)[C@H](CC(=O)O)NC2=O (stereo partly drawn) [I-1067, Ac-PL3-Asp-Npg-B5-Asp-Glu-Ala-Ala-Phe-Leu-PyrS2-2C1F-BztA-Ser-NH2]	
2.049	0.448	0.448	CC(=O)N1CCC[C@]12CC=CCCCC1(CCCC=CCCCOC(=O)N3CC[C@@](C(=O)N[C@@H](Cc4ccccc4Cl)C(=O)N[C@@H](Cc4csc5ccccc45)C(=O)N[C@@H](CCC(N)=O)C(N)=O)(C3)NC(=O)[C@H](CC(C)C)NC(=O)[C@H](Cc3ccccc3)NC(=O)[C@H](C)NC(=O)[C@H](C)NC(=O)[C@H](CC(=O)O)NC(=O)[C@H](CC(=O)O)NC1=O)NC(=O)[C@H](CC1CCCCC1)NC(=O)[C@H](CC(=O)O)NC2=O (stereo partly drawn) [I-1076, Ac-PL3-Asp-Cha-B5-Asp-Asp-Ala-Ala-Phe-Leu-PyrS2-2C1F-BztA-Gln-NH2]	
3.271	0.046	0.046	CC(=O)N1CCC[C@]12CC=CCCCC1(CCCC=CCCCCCC[C@@](C)(C(=O)N[C@@H](Cc3ccccc3Cl)C(=O)N[C@@H](Cc3csc4ccccc34)C(=O)N[C@@H](C(N)=O)[C@H](C)O)NC(=O)[C@H]([C@@H](C)O)NC(=O)[C@H](Cc3ccccc3)NC(=O)[C@H](C)NC(=O)[C@H](C)NC(=O)[C@H](CCC(=O)O)NC(=O)[C@H](CC(=O)O)NC1=O)NC(=O)[C@H](CC(C)(C)C)NC(=O)[C@H](CC(=O)O)NC2=O (stereo partly drawn) [I-1094, Ac-PL3-Asp-Npg-B5-Asp-Glu-Ala-Ala-Phe-Thr-S8-2C1F-BztA-dThr-NH2]	
